Like-named read-outs stand apart in the source and are kept apart here.

We go through eleven compounds from patent EP0612845A2 (priority 1993, dated 1994).

Assay [1] has as its target T1, m-opiate receptor (mOR) cDNA RC8-1 expressed in COS cells (Rattus norvegicus, UniProt P33535).
T1 construct: expressed in transfected cells; host or cells: COS cells, transient electroporation with pcDNA1RC8-1; membranes
The format is binding.

The target in assay [2] is rat brain opioid receptor. In words: Competition with [125I]b-endorphin for binding to rat brain membranes (analytical microtiter plate assay). As to the method: Whole male rat brains frozen in liquid N₂ are purchased from Pel-Freez (Rogers, AR). All procedures for membrane preparation are carried out at a temperature of 2-6 °C. The brains are homogenized in a Waring blender in a buffer containing 1 mM Na-bicarbonate (pH 7.2), 1 mM EDTA, 1 mM EGTA (all chemicals from Sigma Chemical, St. Louis, MO) and 0.7% (vol./vol.) of the 100X 4Pase protease inhibitor mixture (see "Protease Inhibitors" below). The ratio of tissue/homogenization medium is from 25-35 gm of brain/500 ml. The blender is controlled through a variable output rheostat (Staco Energy Products, Dayton, OH; type 3PN1010) at a setting of 40. The homogenate is centrifuged for 10 minutes at 1,000 x g pellet is rehomeginized in 500 ml of homogenization medium and recentrifuged for 10 minutes at 1,000 x g. The 1,000 x g pellet is discarded. The 1,000 x g supernatants are combined and centrifuged for 30 minutes at 20,000 x g. The 20,000 x g membrane pellet is washed by being resuspended with a Dounce homogenizer in 500 ml of homogenization medium supplemented with 10 mM EDTA (pH readjusted to 7.4) and then washed twice by being resuspended in 25 mM Tris buffer (Sigma Chemical Co.; pH 7.4) and centrifuged for 25 minutes at 20,000 x g. The final membrane pellet is resuspended in 25 mM inhibitor mixture to a protein concentration of 4-12 mg/ml. The resuspended membranes are aliquoted, frozen on dry ice and stored at -90 °C.
Binding of [¹²⁵I]-labelled b-endorphin, b-endorphin and other b-endorphin analogs and opioids is done in a binding buffer containing 50 mM HEPES (Sigma; pH 7.4; pHed with KOH), 0.1% (w/v) bovine serum albumin (Miles Laboratories, Elkhart, IN) and protease inhibitors as specified below for specific applications. All binding incubations are carried out at room temperature (20-23 °C). • A. Analytical - This assay is carried out in 96 well microtiter plates (Immulon II with snap-off wells; Dynatech, Chantille, VA). To carry out the assay, the following components are added to the wells in the order and volumes shown: (1) […] of nonlabelled ligand. For this purpose, ligands (for example b-endorphin or biotinylated b-endorphin) are made up at 40X the desired final concentration in the 40X P/B/Pz protease inhibitor mixture (Experimental Procedures. 4.C.) (2) […] of [¹²⁵I]b-endorphin in binding buffer + 1/100 volume of the 100X 4Pase protease inhibitor mixture; mix briefly on a microtiter plate shaker (Dynatech Micro-Shaker II, Dynatech, Chantilly, VA). (3) […] of rat brain membrane diluted in binding buffer + […] volume of 100X 4Pase to deliver […] of membrane protein per well. The plates are then covered with Linbro Mylar plate sealers (Flow Labs, McLean, VA) and incubated for 1 hour at room temperature (20-23 °C). The membranes are pelleted by centrifugation at 2,000 x g, the supernatants (containing nonbound ligands) are decanted and the pellets are washed by the addition of […] of ice cold binding buffer, brief shaking and recentrifugation. CPM of [¹²⁵I] in the final membrane pellets is then counted in a gamma counter (LKB Gammamaster 1277; 80% efficiency). • B. Preparative - Rat brain membranes are diluted to a concentration of 0.5 mg of membrane protein/ml in binding buffer containing 1/400 (vol./vol.) of the 400X P/B/Bz protease inhibitor mixture (see Section 4). […] In this case, the blocking ligand is added from 5-15 minutes prior to the addition of biotinyl-b-endorphin. In some cases only the blocking ligand is added. […]

The target of assay [3] is T1, m-opiate receptor (mOR) cDNA RC8-1 expressed in COS cells. In kind it is binding. This is another data set of the same source.
Assay [4] relates to [¹²⁵I]b-Endorphin: Opioid Receptor Complex. In words: Dissociation of the solubilized R:L complex, measured by binding to WGA-agarose. The format is biochemical, rat.
The mark [5] stands for this setting: competition with [¹²⁵I]b-endorphin, rat brain membranes, read-out: IC₅₀s for reduction of radioligand binding by competition with cold ligand.
The mark [6] stands for this setting: reanalysis, F1 fraction heated at 50°C for 5 min, read-out: IC50 for binding to receptors in rat brain membranes by competition vs. [¹²⁵I]b-endorphin (reanalysis).

T1 sequence (P33535 whole entry): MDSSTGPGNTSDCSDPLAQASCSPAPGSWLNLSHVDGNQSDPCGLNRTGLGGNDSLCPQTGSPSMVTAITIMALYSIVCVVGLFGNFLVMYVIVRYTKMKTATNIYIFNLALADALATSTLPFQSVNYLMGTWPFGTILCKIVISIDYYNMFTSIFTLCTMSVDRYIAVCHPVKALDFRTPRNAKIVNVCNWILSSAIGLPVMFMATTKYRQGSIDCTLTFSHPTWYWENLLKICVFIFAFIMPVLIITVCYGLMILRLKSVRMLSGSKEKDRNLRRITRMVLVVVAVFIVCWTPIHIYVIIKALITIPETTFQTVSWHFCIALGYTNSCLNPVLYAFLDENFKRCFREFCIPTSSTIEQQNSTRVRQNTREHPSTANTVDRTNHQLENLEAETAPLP

Turning to NaCl, the “effect of addition to incubations on [³H]DAMGO binding” value in assay [1] was “reduced”.

In the case of `Nc1nc2c(ncn2[C@@H]2O[C@H](COP(=O)(O)OP(=O)(O)OP(=O)(O)O)[C@@H](O)[C@H]2O)c(=O)[nH]1` [GTP], the “effect of addition to incubations on [³H]DAMGO binding” value in assay [1] is recorded as “reduced”.

For “[biotinyl-Lys³²]b-endorphin [biotinyl-b-endorphin (F1)]”, the IC50 in assay [2] (setting [5]) worked out at 1 nM.

On to ethylketocyclazocino, for which the “potency in displacing binding of [³H]DAMGO” value (shortened to “potency in displacing binding”) in assay [3] is recorded as “high potency”.

In the case of `CN1CC[C@]23c4c5ccc(O)c4O[C@H]2[C@@H](O)C=C[C@H]3[C@H]1C5` [Morphine], in assay [3], the “potency in displacing binding” value is recorded as “high potency”.

Regarding “[biotinyl-Lys³²]b-endorphin [biotinyl-b-endorphin]”, the IC50 in assay [2] (setting [6]) was 1.8 nM.

As for `CCC12CCN(CC3(O)CC3)C(Cc3ccc(O)cc31)C2(C)C` (centres unmarked) [bromazocino], the “potency in displacing binding” value in assay [3] was “high potency”.

Take `Nc1nc2c(ncn2[C@@H]2O[C@H](COP(=O)(O)OP(=O)(O)OP(O)(O)=S)[C@@H](O)[C@H]2O)c(=O)[nH]1` [GTP-g-S]: the “dissociation of receptor from ligand” value in assay [4] (GTP analog alone, without NaCl) was “about 30%”. Further, the “% Decrease in R:L Complex” value is 34% in assay [4] (Table 1, 100 mM GTP-g-S, 10 minutes at room temperature); 77% in assay [4] (Table 2, 100 mM GTP-g-S + 25 mM NaCl); 90% in assay [4] (Table 2, 100 mM GTP-g-S + 50 mM NaCl); 93% in assay [4] (Table 2, 100 mM GTP-g-S + 100 mM NaCl); 24% in assay [4] (Table 2, 100 mM GTP-g-S alone).

As for `CN1CC[C@]23CCCC[C@H]2[C@H]1Cc1ccc(O)cc13` [levorphan], in assay [3], the “potency in displacing [³H]DAMGO binding relative to the pharmacologically inactive isomer” value was “substantially greater potency”.

As to “[biotinyl-Lys³²]b-endorphin [biotinyl-b-endorphin (F2)]”, in assay [2] (setting [5]), the IC50 came out at 5 nM.

Consider b-endorphin, for which the IC50 in assay [2] (setting [5]) was determined as 1 nM; in assay [2] (setting [6]), 1.2 nM.
